Laboratory results reported in PubChem BioAssay AID1963872 (Molecular Pharmacology Branch, DTP, NCI, 2024).

System: KRAS patient-derived spheroids with HUVEC/MSC, viability
Test: Anticancer human tumor 519858-162-T-J1-PDC patient-derived colon adenocarcinoma cell line growth inhibition [KRAS2]
Conditions: for IC50: curve of first compound; for viability, T/C: stronger effect = lower value
Excerpt: Multicellular complex tumor spheroid response to RAS pathway inhibitors in combination with a targeted agents in patient-derived cell lines with oncogenic KRAS variants from multiple cancer types
A high-throughput screen of multi-cell type tumor spheroids was designed to identify active combinations of targeted small molecules and KRAS pathway inhibitors. Complex spheroids include a stromal component modeled by human endothelial cells (HUVEC) and fibroblasts modeled by human mesenchymal stem cells (MSCs). The concentration ranges selected for each drug and investigational agent were based upon clinically achievable concentrations if the clinical Cmax of the agent was known.
Compounds. The drugs and investigational agents: BI-3406 (NSC825286), BAY-293 (NSC824723), batoprotafib (TNO155; NSC825523), sotorasib (AMG 510; NSC818433), MRTX1257 (NSC819558), elimusertib (BAY 1895344; NSC800525), molibresib (GSK525762; NSC774829), temuterkib (LY3214996; NSC803410), venetoclax (NSC766270), alisertib (NSC759677), olaparib (NSC753686), talazoparib (NSC767125), erdafitinib (NSC781556), ipatasertib (NSC767898), cabozantinib (NSC761068), nintedanib (NSC756659), abemaciclib (NSC768073), docetaxel (NSC628503), trametinib (NSC758246), and sapanisertib (NSC764658) were obtained from the National Cancer Institute (NCI) Developmental Therapeutics Program Chemical Repository. The FDA-approved anticancer drug set is available from the Developmental Therapeutics Program. […] The stock solutions were prepared in dimethyl sulfoxide (DMSO, Sigma-Aldrich, St. Louis, MO, cat. D2650) at 800-fold the tested concentration and stored at -70 degrees C prior to their use. All drugs and investigational agents were tested over a range starting from a high concentration at or near the clinical Cmax and decreasing in half-log increments. If the clinical Cmax for an agent had not been determined, the highest concentration tested was 10 microM.
Cell Culture. All cells were maintained in an incubator at 37 degrees C and 5% CO2 with 95% humidity. The PDC lines were cultured according to standard operating procedures established by the NCI PDMR (https://pdmr.cancer.gov/sops/default.htm). Briefly, all PDCs were thawed and cultured in Matrigel-coated flasks prepared with a working solution of 1X Ham's F-12 nutrient mix, without supplementation (Invitrogen, Waltham, MA, cat. 11765054), 100 U/mL penicillin-streptomycin (Invitrogen, cat. 15140122), and 2.5% Matrigel (Corning Inc., Corning, NY, cat. 354248) for the first three passages. All PDCs were cultured in complete DMEM/F-12 media containing advanced DMEM/F-12 (Invitrogen, cat. 12634028), 4.9% defined fetal bovine serum, heat inactivated (HyClone Laboratories Inc., Logan, UT, cat. SH30070.03HI), 389 ng/mL hydrocortisone (Sigma-Aldrich, cat. H4001), 9.7 ng/mL human EGF recombinant protein (Invitrogen, cat. PHG0313), 23.4 microg/mL adenine (Sigma-Aldrich, cat. A2786), 97.3 U/mL penicillin-streptomycin (Invitrogen, cat. 15140122), 1.9 mM L-glutamine (Invitrogen, cat. 25030081), and 9.7 microM Y-27632 dihydrochloride (Tocris Bioscience, Bristol, United Kingdom, cat. 1254). The PDCs were cultured in complete DMEM/F12 media without 9.7 microM Y-27632 dihydrochloride for at least two passages prior to the screen. The established cell line HOP-62 was cultured in RPMI 1640 medium, HEPES (Invitrogen, cat. 22400105) with 10% defined fetal bovine serum (HyClone Laboratories Inc., cat. SH30070.03) and 2 mM L-glutamine (Invitrogen, cat. 25030081). The pooled donor HUVEC were cultured in endothelial cell growth medium 2 (PromoCell, Heidelberg, Germany, cat. C-22011) and the hMSC were cultured in mesenchymal stem cell growth medium 2 (PromoCell, cat. C-28009). For all experiments, HUVEC and hMSC were used at passages </=5, while the malignant cell lines were used at passages </=15. […]

[1] = second compound 0.1 µM, first compound 0.0316 µM
[2] = second compound 0.1 µM, first compound 0.1 µM
[3] = second compound 0.1 µM, first compound 0.316 µM
[4] = second compound 0.1 µM, first compound 1 µM
[5] = second compound 0.1 µM, first compound 3.16 µM
[6] = second compound 0.316 µM, first compound 0.0316 µM
[7] = second compound 0.316 µM, first compound 0.1 µM
[8] = second compound 0.316 µM, first compound 0.316 µM
[9] = second compound 0.316 µM, first compound 1 µM
[10] = second compound 0.316 µM, first compound 3.16 µM
[11] = second compound 1 µM, first compound 0.0316 µM
[12] = second compound 1 µM, first compound 0.1 µM
[13] = second compound 1 µM, first compound 0.316 µM
[14] = second compound 1 µM, first compound 1 µM
[15] = second compound 1 µM, first compound 3.16 µM
[16] = second compound 3.16 µM, first compound 0.0316 µM
[17] = second compound 3.16 µM, first compound 0.1 µM
[18] = second compound 3.16 µM, first compound 0.316 µM
[19] = second compound 3.16 µM, first compound 1 µM
[20] = second compound 3.16 µM, first compound 3.16 µM
[21] = second compound 10 µM, first compound 0.0316 µM
[22] = second compound 10 µM, first compound 0.1 µM
[23] = second compound 10 µM, first compound 0.316 µM
[24] = second compound 10 µM, first compound 1 µM
[25] = second compound 10 µM, first compound 3.16 µM
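Also: compound exposure lasted seven days before readout.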
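For viability, T/C in this document: 100% = DMSO vehicle control viability.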

SMILES | IC50 (second compound 0.1 µM) | IC50 (second compound 0.316 µM) | IC50 (second compound 1 µM) | IC50 (second compound 3.16 µM) | IC50 (second compound 10 µM) | viability, T/C [1] | viability, T/C [2] | viability, T/C [3] | viability, T/C [4] | viability, T/C [5] | viability, T/C [6] | viability, T/C [7] | viability, T/C [8] | viability, T/C [9] | viability, T/C [10] | viability, T/C [11] | viability, T/C [12] | viability, T/C [13] | viability, T/C [14] | viability, T/C [15] | also measured
CC(=O)OC12COC1CC(O)C1(C)C(=O)C(O)C3=C(C)C(OC(=O)C(O)C(NC(=O)OC(C)(C)C)c4ccccc4)CC(O)(C(OC(=O)c4ccccc4)C21)C3(C)C (stereo not given) + C=CC(=O)N1CCN(c2nc(=O)n(-c3c(C)ccnc3C(C)C)c3nc(-c4c(O)cccc4F)c(F)cc23)C(C)C1 | > 3160 nM | > 3160 nM | > 3160 nM | > 3160 nM | > 3160 nM | 80.8% | 98.2% | 89.6% | 72.3% | 62.1% | 68.9% | 84.3% | 93.1% | 77.5% | 64.7% | 80.2% | 90.5% | 83.5% | 74.1% | 67.8% | viability, T/C (second compound 0.1 µM, first compound 0.01 µM): 121%; viability, T/C (second compound 0.316 µM, first compound 0.01 µM): 84.7%; viability, T/C (second compound 1 µM, first compound 0.01 µM): 62.8%; viability, T/C (second compound 3.16 µM, first compound 0.01 µM): 54.7%; viability, T/C [16]: 74.6%; viability, T/C [17]: 70%; viability, T/C [18]: 103%; viability, T/C [19]: 69.7%; viability, T/C [20]: 75.8%; viability, T/C (second compound 10 µM, first compound 0.01 µM): 62.1%; viability, T/C [21]: 79%; viability, T/C [22]: 84.5%; viability, T/C [23]: 68.5%; viability, T/C [24]: 64.8%; viability, T/C [25]: 69.3%
CCNC(=O)CC1N=C(c2ccc(Cl)cc2)c2cc(OC)ccc2-n2c(C)nnc21 (stereo not given) + CNCc1ccccc1-c1csc(C(C)Nc2nc(C)nc3cc(OC)c(OC)cc23)c1 | 2250 nM | 1370 nM | 510 nM | 73.9 nM | < 31.6 nM | 82.5% | 109% | 87.2% | 67.5% | 43.8% | 81.5% | 74.5% | 65.6% | 52.4% | 41.2% | 61.1% | 59% | 54.2% | 44% | 34.9% | viability, T/C (second compound 0.1 µM, first compound 10 µM): 19.8%; viability, T/C (second compound 0.316 µM, first compound 10 µM): 25.6%; viability, T/C (second compound 1 µM, first compound 10 µM): 24.2%; viability, T/C [16]: 51.9%; viability, T/C [17]: 54%; viability, T/C [18]: 37.5%; viability, T/C [19]: 29.1%; viability, T/C [20]: 23.9%; viability, T/C (second compound 3.16 µM, first compound 10 µM): 9.53%; viability, T/C [21]: 0.36%; viability, T/C [22]: 1.18%; viability, T/C [23]: 0.49%; viability, T/C [24]: 0.46%; viability, T/C [25]: 0.69%; viability, T/C (second compound 10 µM, first compound 10 µM): 0.69%
